Measurements: patent US10555987B2, “GHRH agonists for the treatment of ischemic disorders” (UNIVERSITY OF MIAMI, priority 2012, dated 2020)
Non-standard residues stand in square brackets, D forms with d. Residues, ends and D or L forms follow the SMILES beside them. ξ: configuration not given here. *: point of attachment. Phe(F5) = N[C@@H](Cc1c(F)c(F)c(F)c(F)c1F)C(=O)O; Desaminotyrosyl = O=C(CCc1ccc(O)cc1)*; NMeY = CN[C@@H](Cc1ccc(O)cc1)C(=O)O; Nle = CCCC[C@H](N)C(=O)O; Orn = NCCC[C@H](N)C(=O)O; Abu = CC[C@H](N)C(=O)O; GABA = NCCCC(=O)O; ξA = CC(N)C(=O)O

What was measured:
[1] = target: T1, GHRH receptor (Homo sapiens, UniProt Q02643); experiment: GHRH receptor binding, competition with 125I-labeled JV-1-42, human pituitary membrane homogenates (Table 7); set-up: Normal human pituitaries were purchased from the National Hormone and Peptide Program; tissue National Hormone and Peptide Program (A.F. Parlow, Harbor-UCLA Medical Center, Torrance, Calif.); host or cells: normal human pituitary, membrane fraction; conditions: JI-38 = 1, Table 7
T1 sequence (Q02643 23-423): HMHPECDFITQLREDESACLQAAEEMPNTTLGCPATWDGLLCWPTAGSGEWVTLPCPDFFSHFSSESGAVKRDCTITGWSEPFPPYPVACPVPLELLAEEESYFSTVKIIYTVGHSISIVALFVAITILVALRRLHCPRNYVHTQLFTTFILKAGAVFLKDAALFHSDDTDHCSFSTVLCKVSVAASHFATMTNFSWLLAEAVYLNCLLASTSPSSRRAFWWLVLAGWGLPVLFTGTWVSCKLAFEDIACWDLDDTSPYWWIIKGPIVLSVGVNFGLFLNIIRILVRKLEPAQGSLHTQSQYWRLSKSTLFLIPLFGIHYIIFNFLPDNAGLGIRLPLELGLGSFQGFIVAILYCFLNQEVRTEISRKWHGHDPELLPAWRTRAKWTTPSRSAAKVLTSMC
Source text: Normal human pituitaries were purchased from the National Hormone and Peptide Program (A.F. Parlow, Los Angeles, County Harbor-UCLA Medical Center, Torrance, Calif.).

[2] = test system: GH release; experiment: GH releasing potency in vivo, subcutaneous administration (Example 14, Table 12); set-up: species or system rat; conditions: s.c.
Description: Male Sprague-Dawley rats, weighing 200-250 g, were purchased from Charles River Laboratory (Wilmington, Mass.) and used for experiments. All animal procedures were approved by the Veterans Affairs Animal Care and Use Committee and were conducted in accordance with additional institutional guidelines as well. Briefly, groups of 5-6 animals were used in each experiment. The rats were anesthetized with 50 mg/kg of sodium pentobarbital (Nembutal, Lundbeck Inc., Deerfield, Ill.). Twenty min after inducing anesthesia, GHRH(1-29)NH2, JI-38, or new analogs were injected into the animals intravenously (i.v.) or subcutaneously (s.c.). The peptides were dissolved in 0.01 M acetic acid to get 1 μg/μl stock solution, and then diluted with 5% mannitol. Control rats received 5% mannitol only. Blood samples were collected from the jugular vein at selected times and were used for serum preparation. Concentrations of GH in rat sera were determined by ELISA. The relative potencies of tested peptides were calculated using GHRH(1-29)NH2 and JI-38 for comparison, whose potency was defined as 1. The equivalent dosage of GHRH(1-29)NH2 to reach the same level of serum growth hormone release after injection of the specific tested peptide was determined from a GHRH(1-29)NH2 standard curve using Origin 6.0 software. […] Serum GH was determined using the rat Growth Hormone ELISA kit (ALPCO Diagnostics, Mill Valley, Calif.) according to the manufacturer's instruction. Absorbance at 405 nm was measured by a Victor 3 Multi-label Counter (Perkin-Elmer, Waltham, Md.).

[3] = target: T1, GHRH receptor; experiment: Receptor binding in vitro, 125I-labeled [His1,Nle27]-hGHRH(1-32)NH2, membrane receptors of human anterior pituitary cells (Table 14)
[4] = test system: GH release; experiment: In vivo endocrine activity, GH release after subcutaneous administration (Table 9); conditions: rat; for GH releasing potency relative to JI-38 (=1): subcutaneous (s.c.) injection
Description: Subcutaneous Administration. Adult male rats were used and anesthetized with pentobarbital (6 mg/100 g, b.w.), by i.p. injection. […] Blood samples were taken from the jugular vein 5, 15 and/or 30 minutes after the injection. The blood samples were centrifuged, plasma was removed and the GH level was measured byELISA. The results are summarized in terms of potency in Table 9.

Relative affinity (Binding potency) vs JI-38 [1]	Compound	GH releasing potency relative to JI-38 (=1) ([4]; 15 min after)	GH releasing potency relative to JI-38 (=1) ([4]; 30 min after)	further results
1.45	CCCC[C@H](NC(=O)[C@@H](NC(=O)[C@H](CC(=O)O)NC(=O)[C@H](CCC(N)=O)NC(=O)[C@H](CC(C)C)NC(=O)[C@H](CC(C)C)NC(=O)[C@H](CCCN)NC(=O)[C@H](CCCNC(=N)N)NC(=O)[C@H](C)NC(=O)[C@H](CO)NC(=O)[C@H](CC(C)C)NC(=O)[C@H](CCC(N)=O)NC(=O)[C@H](CC)NC(=O)[C@H](CC(C)C)NC(=O)[C@@H](NC(=O)[C@H](CCCN)NC(=O)[C@H](CCCNC(=N)N)NC(=O)[C@H](Cc1ccc(O)cc1)NC(=O)[C@H](CO)NC(=O)[C@H](CCC(N)=O)NC(=O)[C@@H](NC(=O)[C@H](Cc1ccccc1)NC(=O)[C@@H](NC(=O)[C@H](C)NC(=O)[C@H](CC(=O)O)NC(=O)[C@H](C)NC(=O)CCc1ccc(O)cc1)[C@@H](C)CC)[C@@H](C)O)C(C)C)[C@@H](C)CC)C(=O)N[C@@H](CC(=O)O)C(=O)N[C@@H](CCCNC(=N)N)C(=O)NC [Peptide P-27407, [Dat^1, Gln^8, Orn^12, Abu^15, Orn^21, Nle^27, Asp^28]hGHRH(1-29)NH—CH3] (Desaminotyrosyl-ADAIFTQSYR[Orn]VL[Abu]QLSAR[Orn]LLQDI[Nle]DR-NHMe)			Serum GH level at selected time after injection (ng/ml), 0 min ([2]; male rats, dose 3 μg/kg, 0 min, mean ± SEM): 36.7 ± 10.2 ng/mL; Serum GH level at selected time after injection (ng/ml), 15 min ([2]; male rats, dose 3 μg/kg, 15 min, mean ± SEM): 248.0 ± 40.5 ng/mL; Serum GH level at selected time after injection (ng/ml), 30 min ([2]; male rats, dose 3 μg/kg, 30 min, mean ± SEM): 135.2 ± 10.8 ng/mL; Relative potency compared to GHRH(1-29), 15 min ([2]; 15 min): 69.6; Relative potency compared to JI-38, 15 min ([2]; 15 min): 1.10; Relative potency compared to GHRH(1-29), 30 min ([2]; 30 min): 122; Relative potency compared to JI-38, 30 min ([2]; 30 min): 1.09; Relative affinity (Binding potency) compared to JI-38 ([3]; JI-38 = 1): 0.54; Relative affinity (Binding potency) compared to hGHRH(1-29) ([3]; hGHRH(1-29)NH2 = 1): 1.52
2.79	CCCC[C@H](NC(=O)[C@@H](NC(=O)[C@H](CC(=O)O)NC(=O)[C@H](CCC(N)=O)NC(=O)[C@H](CC(C)C)NC(=O)[C@H](CC(C)C)NC(=O)[C@H](CCCN)NC(=O)[C@H](CCCNC(=N)N)NC(=O)[C@H](C)NC(=O)[C@H](CO)NC(=O)[C@H](CC(C)C)NC(=O)[C@H](CCC(N)=O)NC(=O)[C@H](CC)NC(=O)[C@H](CC(C)C)NC(=O)[C@@H](NC(=O)[C@H](CCCN)NC(=O)[C@H](CCCNC(=N)N)NC(=O)[C@H](Cc1ccc(O)cc1)NC(=O)[C@H](CO)NC(=O)[C@H](CC(N)=O)NC(=O)[C@@H](NC(=O)[C@H](Cc1c(F)c(F)c(F)c(F)c1F)NC(=O)[C@@H](NC(=O)[C@H](C)NC(=O)[C@H](CC(=O)O)NC(=O)[C@@H](C)NC(=O)[C@H](Cc1ccc(O)cc1)NC)[C@@H](C)CC)[C@@H](C)O)C(C)C)[C@@H](C)CC)C(=O)N[C@@H](CO)C(=O)N[C@@H](CCCNC(=N)N)C(=O)NCCCC(=O)NC [Peptide P-27414, [N—Me-Tyr^1, D-Ala^2, Fpa5^6, Orn^12, Abu^15, Orn^21, Nle^27, Gab^30]hGHRH(1-30)NH—CH3] (H-[NMeY][dA]DAI[Phe(F5)]TNSYR[Orn]VL[Abu]QLSAR[Orn]LLQDI[Nle]SR[GABA]-NHMe)	1.30	1.23	
1.44	CCCC[C@H](NC(=O)[C@@H](NC(=O)[C@H](CC(=O)O)NC(=O)[C@H](CCC(N)=O)NC(=O)[C@H](CC(C)C)NC(=O)[C@H](CC(C)C)NC(=O)[C@H](CCCN)NC(=O)[C@H](CCCNC(=N)N)NC(=O)[C@H](C)NC(=O)[C@H](CO)NC(=O)[C@H](CC(C)C)NC(=O)[C@H](CCC(N)=O)NC(=O)[C@H](CC)NC(=O)[C@H](CC(C)C)NC(=O)[C@@H](NC(=O)[C@H](CCCN)NC(=O)[C@H](CCCNC(=N)N)NC(=O)[C@H](Cc1ccc(O)cc1)NC(=O)[C@H](CO)NC(=O)[C@H](CC(N)=O)NC(=O)[C@@H](NC(=O)[C@H](Cc1ccccc1)NC(=O)[C@@H](NC(=O)[C@H](C)NC(=O)[C@H](CC(=O)O)NC(=O)[C@H](C)NC(=O)[C@H](Cc1ccc(O)cc1)NC)[C@@H](C)CC)[C@@H](C)O)C(C)C)[C@@H](C)CC)C(=O)N[C@@H](CO)C(=O)N[C@@H](CCCNC(=N)N)C(=O)NCCCC(=O)NC [Peptide P-27415, [N—Me-Tyr^1, Orn^12, Abu^15, Orn^21, Nle^27, Gab^30]hGHRH(1-30)NH—CH3] (H-[NMeY]ADAIFTNSYR[Orn]VL[Abu]QLSAR[Orn]LLQDI[Nle]SR[GABA]-NHMe)	0.45	0.41	

Second part, the compound before the results:

Compound	Relative affinity (Binding potency) vs JI-38 [1]	GH releasing potency relative to JI-38 (=1) ([4]; 15 min after)	GH releasing potency relative to JI-38 (=1) ([4]; 30 min after)	further results
CCCC[C@H](NC(=O)[C@@H](NC(=O)[C@H](CC(=O)O)NC(=O)[C@H](CCC(N)=O)NC(=O)[C@H](CC(C)C)NC(=O)[C@H](CC(C)C)NC(=O)[C@H](CCCN)NC(=O)[C@H](CCCNC(=N)N)NC(=O)[C@H](C)NC(=O)[C@H](CO)NC(=O)[C@H](CC(C)C)NC(=O)[C@H](CCC(N)=O)NC(=O)[C@H](CC)NC(=O)[C@H](CC(C)C)NC(=O)[C@@H](NC(=O)[C@H](CCCN)NC(=O)[C@H](CCCNC(=N)N)NC(=O)[C@H](Cc1ccc(O)cc1)NC(=O)[C@H](CO)NC(=O)[C@H](CC(N)=O)NC(=O)[C@@H](NC(=O)[C@H](Cc1ccccc1)NC(=O)[C@@H](NC(=O)[C@H](C)NC(=O)[C@H](CC(=O)O)NC(=O)[C@@H](C)NC(=O)[C@H](Cc1ccc(O)cc1)NC)[C@@H](C)CC)[C@@H](C)O)C(C)C)[C@@H](C)CC)C(=O)N[C@@H](CO)C(=O)N[C@@H](CCCNC(=N)N)C(=O)NCCCC(N)=O [Peptide P-25501, [N—Me-Tyr^1, D-Ala^2, Orn^12, Abu^15, Orn^21, Nle^27, Gab^30]hGHRH(1-30)NH2] (H-[NMeY][dA]DAIFTNSYR[Orn]VL[Abu]QLSAR[Orn]LLQDI[Nle]SR[GABA]-NH2)	4.07	1.36	1.63	Stimulation of growth hormone levels after subcutaneous administration (in words) ([4]; s.c.): stimulated greater growth hormone levels than hGHRH or JI-38; GH releasing potency relative to JI-38 (=1) ([4]; 5 min after): 1.40
CCCC[C@H](NC(=O)[C@@H](NC(=O)[C@H](CC(=O)O)NC(=O)[C@H](CCC(N)=O)NC(=O)[C@H](CC(C)C)NC(=O)[C@H](CC(C)C)NC(=O)[C@H](CCCN)NC(=O)[C@H](Cc1c[nH]cn1)NC(=O)[C@H](C)NC(=O)[C@H](CO)NC(=O)[C@H](CC(C)C)NC(=O)[C@H](CCC(N)=O)NC(=O)[C@H](CC)NC(=O)[C@H](CC(C)C)NC(=O)[C@@H](NC(=O)[C@H](CCCN)NC(=O)[C@H](Cc1c[nH]cn1)NC(=O)[C@H](Cc1ccc(O)cc1)NC(=O)[C@H](CO)NC(=O)[C@H](CCC(N)=O)NC(=O)[C@@H](NC(=O)[C@H](Cc1ccccc1)NC(=O)[C@@H](NC(=O)[C@H](C)NC(=O)[C@H](CC(=O)O)NC(=O)C(C)NC(=O)CCc1ccc(O)cc1)[C@@H](C)CC)[C@@H](C)O)C(C)C)[C@@H](C)CC)C(=O)N[C@@H](CC(=O)O)C(=O)N[C@@H](CCCNC(=N)N)C(=O)NC (stereo partly drawn) [Peptide P-27413, [Dat^1, Gln^8, His^11, Orn^12, Abu^15, His^20, Orn^21, Nle^27, Asp^28]hGHRH(1-29)NH—CH3] (Desaminotyrosyl-[ξA]DAIFTQSYH[Orn]VL[Abu]QLSAH[Orn]LLQDI[Nle]DR-NHMe)	1.78	0.36	0.57	
